This note sets out measurements from patent publication US5024994A, “Renin inhibitors IV” (Warner-Lambert Company, priority 1988, dated 1991).

In general, IC50 refers to the concentration that inhibits the measured activity by half. As a reminder, the inhibition is the share of the control response that was lost under treatment.

Non-standard residues stand in square brackets, D forms with d. Residues, ends and D or L forms follow the SMILES beside them. *: point of attachment. Arg(NO2) = N=C(NCCC[C@H](N)C(=O)O)N[N+](=O)[O-]; Sta = CC(C)C[C@H](N)[C@@H](O)CC(=O)O; Boc = CC(C)(C)OC(=O)*; NHBn = c1ccc(CN*)cc1

In the first assay the target is T1, renin (Homo sapiens, UniProt P00797).
T1 sequence (P00797 67-406): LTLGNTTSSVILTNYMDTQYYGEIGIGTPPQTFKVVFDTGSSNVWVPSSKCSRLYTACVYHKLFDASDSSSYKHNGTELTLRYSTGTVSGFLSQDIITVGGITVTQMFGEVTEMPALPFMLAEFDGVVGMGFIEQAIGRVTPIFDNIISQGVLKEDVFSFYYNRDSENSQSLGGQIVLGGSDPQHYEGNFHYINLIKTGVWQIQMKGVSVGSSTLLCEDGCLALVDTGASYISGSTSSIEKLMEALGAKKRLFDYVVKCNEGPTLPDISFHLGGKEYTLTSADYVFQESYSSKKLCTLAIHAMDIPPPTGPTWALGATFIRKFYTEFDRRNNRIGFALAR
Description: in vitro renin inhibitory activity, radioimmunoassay for angiotensin I.
Details: not given
The class given is biochemical. Here is the method:
The effectiveness of the aforementioned compounds is determined by a test for in vitro renin inhibitory activity. This activity is determined by a standard radioimmunoassay for angiotensin I. In this assay the enzyme, renin, incubated for two hours at 37° in the presence of a substrate, angiotensinogen, generates the product, angiotensin I. Test compounds are added to the incubation mixture.
`CCC(C)CNC(=O)C[C@H](O)[C@H](CC(C)C)NC(=O)C(CC#CCNC(C)=O)NC(=O)C(Cc1cccc2ccccc12)Cc1cccc2ccccc12` (single isomer, unassigned) came in with an IC50 of 0.029 µM. The same measure, in the same setting: the figure for `CC(C)C[C@H](NC(=O)C[C@H](O)[C@H](CC(C)C)NC(=O)C(CCCC1CO1)NC(=O)C(Cc1cccc2ccccc12)Cc1cccc2ccccc12)C(=O)NCc1ccccc1` (single isomer, unassigned) [drawing 65] is 0.057 µM; for `CC[C@H](C)CNC(=O)C[C@H](O)[C@H](CC(C)C)NC(=O)[C@H](CCCCNS(=O)(=O)c1ccc(C)cc1)NC(=O)C(Cc1cccc2ccccc12)Cc1cccc2ccccc12` [Example 41, DNMA-LYS(TOS)-STA-NHCH2 CH(CH3)CH2 CH3] it is 3 µM.

Still in this assay, the particulars now being: at 10^-6 molar concentration; read-out: percent inhibition of renin activity.
Turning to `CC(C)C[C@H](NC(=O)C[C@H](O)[C@H](CC(C)C)NC(=O)C(CCCC1CO1)NC(=O)C(Cc1cccc2ccccc12)Cc1cccc2ccccc12)C(=O)NCc1ccccc1` (single isomer, unassigned) [drawing 66], the inhibition at 1 µM turned out to be 47%.

Staying with this assay, now noted: read-out: IC50.
Take `CNC(=S)NCC#CCC(NC(=O)C(Cc1cccc2ccccc12)Cc1cccc2ccccc12)C(=O)N[C@@H](CC1CCCCC1)[C@@H](O)CC(=O)NCCN1CCOCC1` (stereo partly shown): the IC50 was found to be 0.048 µM. As to `CC[C@H](C)CNC(=O)C[C@H](O)[C@H](CC(C)C)NC(=O)[C@H](CCCCNC(=O)CSC)NC(=O)C(Cc1cccc2ccccc12)Cc1cccc2ccccc12`, the IC50 worked out at 0.098 µM. For the compound `CC[C@H](C)CNC(=O)C[C@H](O)[C@H](CC(C)C)NC(=O)[C@H](CCCCNC(=O)CS(C)(=O)=O)NC(=O)C(Cc1cccc2ccccc12)Cc1cccc2ccccc12`, the IC50 is 0.068 µM. Same read-out and setting: under `CC[C@H](C)CNC(=O)C[C@H](O)[C@H](CC(C)C)NC(=O)[C@H](CCCCNC(=O)C[S+](C)[O-])NC(=O)C(Cc1cccc2ccccc12)Cc1cccc2ccccc12` (stereo partly shown) stands 0.041 µM; under `CC[C@H](C)CNC(=O)C[C@H](O)[C@@H](NC(=O)[C@H](CCCCNC(=S)NC)NC(=O)C(Cc1cccc2ccccc12)Cc1cccc2ccccc12)C1CCCCC1`, 0.023 µM; under `CSC(=NC#N)NCCCC[C@H](NC(=O)C(CC(=O)N1CCOCC1)Cc1cccc2ccccc12)C(=O)N[C@@H](CC(C)C)[C@@H](O)CC(=O)NCCN1CCOCC1` (stereo partly shown), 0.35 µM. Take `CC(C)C[C@H](NC(=O)[C@H](CCCCNC(=N)N[N+](=O)[O-])NC(=O)C(CC(=O)N1CCOCC1)Cc1cccc2ccccc12)[C@@H](O)CC(=O)NCCN1CCOCC1` (stereo partly shown): the half-inhibitory concentration (IC50) was 0.42 µM. Turning to `CNC(=S)NCCCC[C@H](NC(=O)C(CC(=O)N1CCOCC1)Cc1cccc2ccccc12)C(=O)N[C@@H](CC(C)C)[C@@H](O)CC(=O)NCCN1CCOCC1` (stereo partly shown), the IC50 came to 0.56 µM. Consider `CNC(=S)NCCCC[C@H](NC(=O)C(Cc1cccc2ccccc12)Cc1cccc2ccccc12)C(=O)N[C@@H](CC1CCCCC1)[C@@H](O)CC(=O)NCCN1CCOCC1`, for which the IC50 is 0.029 µM.

For `CNC(=S)NCCCC[C@H](NC(=O)C(CC(=O)N1CCOCC1)Cc1cccc2ccccc12)C(=O)N[C@@H](CC1CCCCC1)[C@@H](O)CC(=O)NCCN1CCOCC1` (stereo partly shown), the IC50 was 0.02 µM. As to `CNC(=S)NCCCC[C@H](NC(=O)C(Cc1cccc2ccccc12)Cc1cccc2ccccc12)C(=O)N[C@@H](CC(C)C)[C@@H](O)CC(=O)NCCN1CCOCC1`, the IC50 amounted to 0.12 µM. In the case of `CC(C)C[C@H](NC(=O)[C@H](CCCCNC(=N)N[N+](=O)[O-])NC(=O)C(Cc1cccc2ccccc12)Cc1cccc2ccccc12)[C@@H](O)CC(=O)NCCN1CCOCC1`, the IC50 came out at 0.045 µM. Take `CSC(=NC#N)NCCCC[C@H](NC(=O)C(Cc1cccc2ccccc12)Cc1cccc2ccccc12)C(=O)N[C@@H](CC(C)C)[C@@H](O)CC(=O)NCCN1CCOCC1`: the IC50 was 0.09 µM. On to `CC[C@H](C)CNC(=O)C[C@H](O)[C@H](CC(C)C)NC(=O)[C@H](CCCCNC(=S)NC)NC(=O)C(Cc1ccccc1)Cc1cccc2ccccc12` (stereo partly shown), for which the IC50 turned out to be 0.14 µM.

For `CCOC(=O)C(NC(=O)C(Cc1cccc2ccccc12)Cc1cccc2ccccc12)C(=O)N[C@@H](CC(C)C)[C@@H](O)CC(=O)N[C@@H](CC(C)C)C(=O)NCc1ccccn1` (stereo partly shown), the IC50 is 0.013 µM. In the case of `C=CCCCC(NC(=O)C(Cc1cccc2ccccc12)Cc1cccc2ccccc12)C(=O)N[C@@H](CC(C)C)[C@@H](O)CC(=O)N[C@@H](CC(C)C)C(=O)NCc1ccccc1` (single isomer, unassigned; isomer a) [Example 48, DNMA-NHCH(CH2 CH2 CH2 CH=CH2)CO-STA-LEU-NHCH2 Ph (ISOMER A)], the IC50 turned out to be 0.091 µM. With `C=CCCCC(NC(=O)C(Cc1cccc2ccccc12)Cc1cccc2ccccc12)C(=O)N[C@@H](CC(C)C)[C@@H](O)CC(=O)N[C@@H](CC(C)C)C(=O)NCc1ccccc1` (single isomer, unassigned; isomer b) [Example 49, DNMA-NHCH(CH2 CH2 CH2 CH=CH2)CO-STA-LEU-NHCH2 Ph (ISOMER B)], the IC50 amounted to 3.5 µM. Same read-out and setting: the figure for `CC(C)C[C@H](NC(=O)C[C@H](O)[C@H](CC(C)C)NC(=O)[C@H](CCCNC(=N)N[N+](=O)[O-])NC(=O)[C@H](Cc1ccccc1)NC(=O)OC(C)(C)C)C(=O)NCc1ccccc1` [Example 1, BOC-PHE-ARG(NO2)-STA-LEU-NHCH2 Ph] (Boc-F[Arg(NO2)][Sta]L-NHBn) is 0.063 µM. As to `CC(C)C[C@H](NC(=O)C[C@H](O)[C@H](CC(C)C)NC(=O)[C@H](CCCN1C(=O)c2ccccc2C1=O)NC(=O)[C@H](Cc1ccccc1)NC(=O)OC(C)(C)C)C(=O)NCc1ccccc1` [Example 4, BOC-PHE-ORN(PHT)-STA-LEU-NHCH2 Ph], the IC50 stood at 0.91 µM. The same measure, in the same setting: under `CC[C@H](C)CNC(=O)C[C@H](O)[C@H](CC(C)C)NC(=O)[C@H](CCCCNC(=O)OC)NC(=O)C(Cc1cccc2ccccc12)Cc1cccc2ccccc12` [Example 42, DNMA-LYS(CO2 CH3)-STA-NHCH2 CH(CH3)CH2 CH3] stands 0.06 µM.

The same assay, now with this note: renin incubated two hours at 37° with angiotensinogen; molar concentration causing 50% inhibition; read-out: IC50.
For DNMA-LYS(Z)-STA-LEU-NHCH2 Ph, the IC50 came to 2.9 µM.
